Source: US20240209028A1, “CNP COMPOUNDS” (priority 2022, published 2024)
Starred links: 1 amine or outer side, 2 acyl side, 3 side chain; linkers in the order of their positions; H or OH if unused. Positions of bridges follow the written chain, without caps; N, C: chain ends. Residues, ends and D or L forms follow the SMILES beside them. *: point of attachment. C18 diacid = O=C(O)CCCCCCCCCCCCCCCCC(=O)*; γGlu = O=C(O)[C@H](CCC(=O)[*:2])N[*:1]; AEEA = NCCOCCOCC(=O)O

Experiment: Thioflavin T (ThT) assay: lagtime and peptide recovery
Type: physicochemical
Settings: ThT assay, pH 6.5, 37° C.; assay terminated after 45 hours
Procedure, shortened: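 ThT (final about 1 μM) was added to peptide supernatants at pH 4.0 and 6.5 and incubated at 37 °C with orbital shaking for 45 h. Fluorescence (ex 444/em 485 nm) was read every 20 min, and lag-time was taken as the time to onset of signal rise. Recovery is the RP-UPLC (215 nm) total peak area after vs. before incubation.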

Compound	LagTime (h) at pH 6.5
CC[C@H](C)[C@@H]1NC(=O)[C@H](CCCNC(=N)N)NC(=O)[C@H](CC(=O)O)NC(=O)[C@H](CC(C)C)NC(=O)[C@@H]2CCCN2C(=O)[C@H](CC(C)C)NC(=O)CNC(=O)[C@H](Cc2ccccc2)NC(=O)[C@@H](NC(=O)CNC(=O)[C@H](CCC(N)=O)NC(=O)[C@H](CO)NC(=O)CNC(=O)CNC(=O)[C@H](CCCCN)NC(=O)[C@H](CCCCN)NC(=O)[C@H](CCC(N)=O)NC(=O)[C@H](C)NC(=O)CNC(=O)[C@H](Cc2c[nH]cn2)NC(=O)[C@H](Cc2ccc(O)cc2)NC(=O)COCCOCCNC(=O)COCCOCCNC(=O)COCCOCCNC(=O)COCCOCCNC(=O)CC[C@H](NC(=O)CC[C@H](NC(=O)CCCCCCCCCCCCCCCCC(=O)O)C(=O)O)C(=O)O)CSSC[C@@H](C(=O)O)NC(=O)CNC(=O)[C@H](CC(C)C)NC(=O)CNC(=O)[C@H](CO)NC(=O)[C@H](CC(C)C)NC(=O)[C@H](CO)NC(=O)CNC1=O [compound 1434] ({C18 diacid-γGlu-γGlu-AEEA-AEEA-AEEA-AEEA}-YHGAQKKGGSQGCFGLPLDRIGSLSGLGC-OH; disulfide 13-29)	45 h
CC[C@H](C)[C@@H]1NC(=O)[C@H](CCCNC(=N)N)NC(=O)[C@H](CC(=O)O)NC(=O)[C@H](CC(C)C)NC(=O)[C@@H]2CCCN2C(=O)[C@H](CC(C)C)NC(=O)CNC(=O)[C@H](Cc2ccccc2)NC(=O)[C@@H](NC(=O)CNC(=O)[C@H](CCC(N)=O)NC(=O)[C@H](CO)NC(=O)[C@H](CC(C)C)NC(=O)CNC(=O)[C@H](CCCCN)NC(=O)[C@H](CCCCN)NC(=O)[C@H](CCC(N)=O)NC(=O)[C@H](C)NC(=O)CNC(=O)[C@H](CCCCN)NC(=O)[C@H](Cc2ccc(O)cc2)NC(=O)[C@H](CCCCN)NC(=O)[C@H](CCCNC(=N)N)NC(=O)[C@H](C)NC(=O)COCCOCCNC(=O)COCCOCCNC(=O)CC[C@H](NC(=O)CC[C@H](NC(=O)CC[C@H](NC(=O)CC[C@H](NC(=O)CC[C@H](NC(=O)CCCCCCCCCCCCCCCCC(=O)O)C(=O)O)C(=O)O)C(=O)O)C(=O)O)C(=O)O)CSSC[C@@H](C(=O)O)NC(=O)CNC(=O)[C@H](CC(C)C)NC(=O)CNC(=O)[C@H](CO)NC(=O)[C@H](CC(C)C)NC(=O)[C@H](CO)NC(=O)CNC1=O [compound 1453] ({C18 diacid-γGlu-γGlu-γGlu-γGlu-γGlu-AEEA-AEEA}-ARKYKGAQKKGLSQGCFGLPLDRIGSLSGLGC-OH; disulfide 16-32)	45 h
CC[C@H](C)[C@@H]1NC(=O)[C@H](CCCNC(=N)N)NC(=O)[C@H](CC(=O)O)NC(=O)[C@H](CC(C)C)NC(=O)[C@@H]2CCCN2C(=O)[C@H](CC(C)C)NC(=O)CNC(=O)[C@H](Cc2ccccc2)NC(=O)[C@@H](NC(=O)CNC(=O)[C@H](CCC(N)=O)NC(=O)[C@H](CO)NC(=O)[C@H](CO)NC(=O)CNC(=O)[C@H](CCCCN)NC(=O)[C@H](CCCCN)NC(=O)[C@H](CCC(N)=O)NC(=O)[C@H](C)NC(=O)CNC(=O)[C@@H]2CCCN2C(=O)[C@H](C)NC(=O)[C@H](CCC(N)=O)NC(=O)CNC(=O)[C@@H]2CCCN2C(=O)[C@H](C)NC(=O)[C@H](CCC(N)=O)NC(=O)CNC(=O)[C@@H]2CCCN2C(=O)[C@H](C)NC(=O)[C@H](CCC(N)=O)NC(=O)CNC(=O)COCCOCCNC(=O)COCCOCCNC(=O)CC[C@H](NC(=O)CCCCCCCCCCCCCCCCC(=O)O)C(=O)O)CSSC[C@@H](C(=O)O)NC(=O)CNC(=O)[C@H](CC(C)C)NC(=O)CNC(=O)[C@H](CO)NC(=O)[C@H](CC(C)C)NC(=O)[C@H](CO)NC(=O)CNC1=O [compound 1457] ({C18 diacid-γGlu-AEEA-AEEA}-GQAPGQAPGQAPGAQKKGSSQGCFGLPLDRIGSLSGLGC-OH; disulfide 23-39)	45 h
CC[C@H](C)[C@@H]1NC(=O)[C@H](CCCNC(=N)N)NC(=O)[C@H](CCC(=O)O)NC(=O)[C@H](CC(C)C)NC(=O)[C@@H]2CCCN2C(=O)[C@H](CC(C)C)NC(=O)CNC(=O)[C@H](Cc2ccccc2)NC(=O)[C@@H](NC(=O)CNC(=O)[C@H](CCC(N)=O)NC(=O)[C@H](CO)NC(=O)[C@H](CC(C)C)NC(=O)CNC(=O)[C@H](CCCCN)NC(=O)[C@H](CCCCN)NC(=O)[C@H](CCC(N)=O)NC(=O)[C@H](C)NC(=O)CNC(=O)[C@H](CCCCN)NC(=O)[C@H](Cc2ccc(O)cc2)NC(=O)[C@H](CCCCN)NC(=O)[C@H](CCCNC(=N)N)NC(=O)[C@H](C)NC(=O)COCCOCCNC(=O)COCCOCCNC(=O)COCCOCCNC(=O)COCCOCCNC(=O)CC[C@H](NC(=O)CC[C@H](NC(=O)CC[C@H](NC(=O)CC[C@H](NC(=O)CC[C@H](NC(=O)CCCCCCCCCCCCCCCCC(=O)O)C(=O)O)C(=O)O)C(=O)O)C(=O)O)C(=O)O)CSSC[C@@H](C(=O)O)NC(=O)CNC(=O)[C@H](CC(C)C)NC(=O)CNC(=O)[C@H](CO)NC(=O)[C@H](CC(C)C)NC(=O)[C@H](CO)NC(=O)CNC1=O [compound 1477] ({C18 diacid-γGlu-γGlu-γGlu-γGlu-γGlu-AEEA-AEEA-AEEA-AEEA}-ARKYKGAQKKGLSQGCFGLPLERIGSLSGLGC-OH; disulfide 16-32)	23 h
CC[C@H](C)[C@@H]1NC(=O)[C@H](CCCNC(=N)N)NC(=O)[C@H](CC(=O)O)NC(=O)[C@H](CC(C)C)NC(=O)[C@@H]2CCCN2C(=O)[C@H](CC(C)C)NC(=O)CNC(=O)[C@H](Cc2ccccc2)NC(=O)[C@@H](NC(=O)CNC(=O)[C@H](CCC(N)=O)NC(=O)[C@H](CO)NC(=O)[C@H](CC(C)C)NC(=O)CNC(=O)[C@H](CCCCN)NC(=O)[C@H](CCCCN)NC(=O)[C@H](CCC(N)=O)NC(=O)[C@H](C)NC(=O)CNC(=O)[C@H](CCCCN)NC(=O)[C@H](Cc2ccc(O)cc2)NC(=O)COCCOCCNC(=O)COCCOCCNC(=O)COCCOCCNC(=O)COCCOCCNC(=O)CC[C@H](NC(=O)CC[C@H](NC(=O)CCCCCCCCCCCCCCCCC(=O)O)C(=O)O)C(=O)O)CSSC[C@@H](C(=O)O)NC(=O)CNC(=O)[C@H](CC(C)C)NC(=O)CNC(=O)[C@H](CO)NC(=O)[C@H](CC(C)C)NC(=O)[C@H](CO)NC(=O)CNC1=O [compound 1478] ({C18 diacid-γGlu-γGlu-AEEA-AEEA-AEEA-AEEA}-YKGAQKKGLSQGCFGLPLDRIGSLSGLGC-OH; disulfide 13-29; C-terminus assumed)	45 h

Same assay, conditions: ThT, 37° C., shaking; assay terminated after 45 hours

Compound	LagTime (h) at pH 4.0
CC[C@H](C)[C@@H]1NC(=O)[C@H](CCCNC(=N)N)NC(=O)[C@H](CC(=O)O)NC(=O)[C@H](CC(C)C)NC(=O)[C@@H]2CCCN2C(=O)[C@H](CC(C)C)NC(=O)CNC(=O)[C@H](Cc2ccccc2)NC(=O)[C@@H](NC(=O)CNC(=O)[C@H](CCCCN)NC(=O)[C@H](CO)NC(=O)[C@H](CC(C)C)NC(=O)CNC(=O)[C@H](CCCCN)NC(=O)[C@H](CCCCN)NC(=O)[C@H](CCC(N)=O)NC(=O)[C@H](C)NC(=O)CNC(=O)[C@H](CCCCN)NC(=O)[C@H](Cc2ccc(O)cc2)NC(=O)[C@H](CCCCN)NC(=O)[C@H](CCCNC(=N)N)NC(=O)[C@H](C)NC(=O)COCCOCCNC(=O)COCCOCCNC(=O)CC[C@H](NC(=O)CC[C@H](NC(=O)CC[C@H](NC(=O)CC[C@H](NC(=O)CC[C@H](NC(=O)CCCCCCCCCCCCCCCCC(=O)O)C(=O)O)C(=O)O)C(=O)O)C(=O)O)C(=O)O)CSSC[C@@H](C(=O)O)NC(=O)CNC(=O)[C@H](CC(C)C)NC(=O)CNC(=O)[C@H](CO)NC(=O)[C@H](CC(C)C)NC(=O)[C@H](CO)NC(=O)CNC1=O [compound 1470] ({C18 diacid-γGlu-γGlu-γGlu-γGlu-γGlu-AEEA-AEEA}-ARKYKGAQKKGLSKGCFGLPLDRIGSLSGLGC-OH; disulfide 16-32)	45 h
CC[C@H](C)[C@@H]1NC(=O)[C@H](CCCNC(=N)N)NC(=O)[C@H](CC(=O)O)NC(=O)[C@H](CC(C)C)NC(=O)[C@@H]2CCCN2C(=O)[C@H](CC(C)C)NC(=O)CNC(=O)[C@H](Cc2ccccc2)NC(=O)[C@@H](NC(=O)CNC(=O)[C@H](CO)NC(=O)[C@H](CO)NC(=O)[C@H](CC(C)C)NC(=O)CNC(=O)[C@H](CCCCN)NC(=O)[C@H](CCCCN)NC(=O)[C@H](CCC(N)=O)NC(=O)[C@H](C)NC(=O)CNC(=O)[C@H](CCCCN)NC(=O)[C@H](Cc2ccc(O)cc2)NC(=O)[C@H](CCCCN)NC(=O)[C@H](CCCNC(=N)N)NC(=O)[C@H](C)NC(=O)[C@H](CCC(N)=O)NC(=O)[C@@H]2CCCN2C(=O)[C@H](Cc2c[nH]cn2)NC(=O)[C@H](CCC(=O)O)NC(=O)[C@H](CCC(N)=O)NC(=O)COCCOCCNC(=O)COCCOCCNC(=O)CC[C@H](NC(=O)CC[C@H](NC(=O)CC[C@H](NC(=O)CC[C@H](NC(=O)CCCCCCCCCCCCCCCCC(=O)O)C(=O)O)C(=O)O)C(=O)O)C(=O)O)CSSC[C@@H](C(=O)O)NC(=O)CNC(=O)[C@H](CC(C)C)NC(=O)CNC(=O)[C@H](CO)NC(=O)[C@H](CC(C)C)NC(=O)[C@H](CO)NC(=O)CNC1=O [compound 1473] ({C18 diacid-γGlu-γGlu-γGlu-γGlu-AEEA-AEEA}-QEHPQARKYKGAQKKGLSSGCFGLPLDRIGSLSGLGC-OH; disulfide 21-37; C-terminus assumed)	45 h
CC[C@H](C)[C@@H]1NC(=O)[C@H](CCCNC(=N)N)NC(=O)[C@H](CC(=O)O)NC(=O)[C@H](CC(C)C)NC(=O)[C@@H]2CCCN2C(=O)[C@H](CC(C)C)NC(=O)CNC(=O)[C@H](Cc2ccccc2)NC(=O)[C@@H](NC(=O)CNC(=O)[C@H](CCCCN)NC(=O)[C@H](CO)NC(=O)[C@H](CC(C)C)NC(=O)CNC(=O)[C@H](CCCCN)NC(=O)[C@H](CCCCN)NC(=O)[C@H](CCC(N)=O)NC(=O)[C@H](C)NC(=O)CNC(=O)[C@H](CCCCN)NC(=O)[C@H](Cc2ccc(O)cc2)NC(=O)[C@H](CCCCN)NC(=O)[C@H](CCCNC(=N)N)NC(=O)[C@H](C)NC(=O)[C@H](CCC(N)=O)NC(=O)[C@@H]2CCCN2C(=O)[C@H](Cc2c[nH]cn2)NC(=O)[C@H](CCC(=O)O)NC(=O)[C@H](CCC(N)=O)NC(=O)COCCOCCNC(=O)COCCOCCNC(=O)CC[C@H](NC(=O)CC[C@H](NC(=O)CC[C@H](NC(=O)CC[C@H](NC(=O)CC[C@H](NC(=O)CCCCCCCCCCCCCCCCC(=O)O)C(=O)O)C(=O)O)C(=O)O)C(=O)O)C(=O)O)CSSC[C@@H](C(=O)O)NC(=O)CNC(=O)[C@H](CC(C)C)NC(=O)CNC(=O)[C@H](CO)NC(=O)[C@H](CC(C)C)NC(=O)[C@H](CO)NC(=O)CNC1=O [compound 1474] ({C18 diacid-γGlu-γGlu-γGlu-γGlu-γGlu-AEEA-AEEA}-QEHPQARKYKGAQKKGLSKGCFGLPLDRIGSLSGLGC-OH; disulfide 21-37; C-terminus assumed)	45 h
CC[C@H](C)[C@@H]1NC(=O)[C@H](CCCNC(=N)N)NC(=O)[C@H](CC(=O)O)NC(=O)[C@H](CC(C)C)NC(=O)[C@@H]2CCCN2C(=O)[C@H](CC(C)C)NC(=O)CNC(=O)[C@H](Cc2ccccc2)NC(=O)[C@@H](NC(=O)CNC(=O)[C@H](CCC(N)=O)NC(=O)[C@H](CO)NC(=O)[C@H](CC(C)C)NC(=O)CNC(=O)[C@H](CCCCN)NC(=O)[C@H](CCCCN)NC(=O)[C@H](CCC(N)=O)NC(=O)[C@H](C)NC(=O)CNC(=O)[C@H](CCCCN)NC(=O)[C@H](Cc2ccc(O)cc2)NC(=O)COCCOCCNC(=O)COCCOCCNC(=O)COCCOCCNC(=O)COCCOCCNC(=O)CC[C@H](NC(=O)CC[C@H](NC(=O)CCCCCCCCCCCCCCCCC(=O)O)C(=O)O)C(=O)O)CSSC[C@@H](C(=O)O)NC(=O)CNC(=O)[C@H](CC(C)C)NC(=O)CNC(=O)[C@H](CO)NC(=O)[C@H](CC(C)C)NC(=O)[C@H](CO)NC(=O)CNC1=O [compound 1478] ({C18 diacid-γGlu-γGlu-AEEA-AEEA-AEEA-AEEA}-YKGAQKKGLSQGCFGLPLDRIGSLSGLGC-OH; disulfide 13-29; C-terminus assumed)	0.33 h
